Data: patent publication US20150119395A1, “NOVEL TRIAZOLE COMPOUNDS THAT MODULATE HSP90 ACTIVITY” (SYNTA PHARMACEUTICALS CORP., priority 2012, published 2015)

Test system: Her2
Assay: Her2 degradation in BT-474 cells, in-cell western (ICW), Method 2
Format: cell-based, human
Details: for IC50: BT-474 cells, 24 hours, Her2 signal normalized to DRAQ5, read-out: Her2 IC50 range of compounds of the invention for inhibition of Hsp90; for EC50: Table 3, read-out: EC50 range for Her2 degradation
Protocol: Human BT474 (HTB-20), SK-BR-3 (HTB-30) and MCF-7 breast carcinoma cells (HTB-22) from American Type Culture Collection, VA, USA were grown in Dulbecco's modified Eagle's medium with 4 mM L-glutamine and antibiotics (100 IU/ml penicillin and 100 μg/ml streptomycine; GibcoBRL). To obtain exponential cell growth, cells were trypsinized, counted and seeded at a cell density of 0.5×10^6 cells/ml regularly, every 3 days. All experiments were performed on day 1 after cell passage.
BT-474 cells were plated in the interior 60 wells of a 96 well black clear bottom plate (20,000 cells/well) in DMEM medium, with DMEM media in the surrounding 36 wells, and incubated at 37° C. with 5% CO2 overnight. On the second day, concentration response curve source plates were produced (10 point, 3-fold dilution of compounds in DMSO) followed by a 1:30 dilution in an intermediate dilution plate containing DMEM. Compound was transferred from the intermediate plate to the cell plate at a dilution of 1:10. The cells were incubated at 37° C. with 5% CO2 for 24 hours.
Cells were fixed in 4% phosphate buffered paraformaldehyde for 30 minutes at room temperature and then permeabilized by washing five times with 0.1% Triton X-100 in PBS for 5 minutes at room temperature on a shaker. Cells were blocked with Odyssey Blocking Buffer (LI-COR, #927-40000) on a shaker at room temperature for 1.5 hours followed by incubation with Her2 antibody (CST, #2165) diluted 1:400 in blocking buffer overnight on a shaker at 4° C. Cells were washed five times with 0.1% Tween-20 in PBS for 5 minutes at room temperature on a shaker and incubated with fluorescently labeled secondary antibody (LI-COR, #926-32211) diluted 1:1000 in blocking buffer, and DRAQ5 nuclear stain (Biostatus Limited, #DRAQ5) diluted 1:10,000, at room temperature on a shaker for 1 hour. Cells were washed 5 times with 0.1% Tween-20 in PBS for 5 minutes at room temperature on a shaker and imaged on a LI-COR Odyssey imaging station. The raw data was normalized to DRAQ5 and the Her2 EC50 were calculated using XLfit.

SMILES	IC50	EC50
CC(C)c1cc(-c2nnc(-c3ccncc3)n2-c2ccc(N3CCN(C)CC3)cc2)c(O)cc1O [Compound 2, 4-isopropyl-6-(4-(4-(4-methylpiperazin-1-yl)phenyl)-5-(pyridin-4-yl)-4H-1,2,4-triazol-3-yl)benzene-1,3-diol]	2280 nM	
CC(C)c1cc(-c2nnc(-c3cc(C(C)C)c(O)cc3O)n2-c2ccc(N3CCN(C)CC3)cc2)c(O)cc1O [Compound 1, 6,6′-(4-(4-(4-methylpiperazin-1-yl)phenyl)-4H-1,2,4-triazole-3,5-diyl)bis(4-isopropylbenzene-1,3-diol)]	3500 nM	
CC(C)c1cc(-c2nnc(-c3cc4ccccc4[nH]3)n2-c2ccccc2)c(O)cc1O [Compound 14, 4-(5-(1H-indol-2-yl)-4-phenyl-4H-1,2,4-triazol-3-yl)-6-isopropylbenzene-1,3-diol]		25 nM
CC(C)c1cc(-c2ccc(-c3cccnc3)n2-c2ccc(N3CCOCC3)cc2)c(O)cc1O [Compound 21, 4-isopropyl-6-(1-(4-morpholinophenyl)-5-(pyridin-3-yl)-1H-pyrrol-2-yl)benzene-1,3-diol]		40 nM
COc1cc(O)c(-c2nnc(-c3cccnc3)n2-c2ccc(CN3CCN(C)CC3)cc2)cc1C(C)C [Compound 20, 4-isopropyl-5-methoxy-2-(4-(4-((4-methylpiperazin-1-yl)methyl)phenyl)-5-(pyridin-3-yl)-4H-1,2,4-triazol-3-yl)phenol]		2090 nM
CC(C)c1cc(-c2nnc(-c3cccc(O)c3)n2-c2ccccc2)c(O)cc1O [Compound 9, 4-(5-(3-hydroxyphenyl)-4-phenyl-4H-1,2,4-triazol-3-yl)-6-isopropylbenzene-1,3-diol]		< 200 nM
CC(C)c1cc(-c2nnc(-c3cccnc3)n2-c2ccc(N3CCOCC3)cc2)c(O)cc1O [Compound 17, 4-isopropyl-6-(4-(4-morpholinophenyl)-5-(pyridin-3-yl)-4H-1,2,4-triazol-3-yl)benzene-1,3-diol]		38 nM
COc1ccc(-c2[nH]nc(-c3cc(C(C)C)c(O)cc3O)c2-c2ccc(OC)cc2)cc1 [Compound 22, 4-(4,5-bis(4-methoxyphenyl)-1H-pyrazol-3-yl)-6-isopropylbenzene-1,3-diol]		> 200 nM
CC(C)c1cc(-c2nnc(-c3cccnc3)n2-c2ccc(CN3CCOCC3)cc2)c(O)cc1O [Compound 13, 4-isopropyl-6-(4-(4-(morpholinomethyl)phenyl)-5-(pyridin-3-yl)-4H-1,2,4-triazol-3-yl)benzene-1,3-diol]		100 nM
CC(C)c1cc(-c2nnc(-c3ccccn3)n2-c2ccc(N3CCN(C)CC3)cc2)c(O)cc1O [Compound 5, 4-isopropyl-6-(4-(4-(4-methylpiperazin-1-yl)phenyl)-5-(pyridin-2-yl)-4H-1,2,4-triazol-3-yl)benzene-1,3-diol]	543 nM	
COc1cc(O)c(-c2nnc(-c3cccnc3)n2-c2ccc(CN3CCOCC3)cc2Cl)cc1C(C)C [Compound 18, 2-(4-(2-chloro-4-(morpholinomethyl)phenyl)-5-(pyridin-3-yl)-4H-1,2,4-triazol-3-yl)-4-isopropyl-5-methoxyphenol]		5000 nM
COc1ccc(-c2cnc(-c3cc(C(C)C)c(O)cc3O)n2-c2ccc(N3CCOCC3)nc2)cc1 [Compound 23, 4-isopropyl-6-(5-(4-methoxyphenyl)-1-(6-morpholinopyridin-3-yl)-1H-imidazol-2-yl)benzene-1,3-diol]		< 200 nM
COc1ccc(-c2cnc(-c3cc(C(C)C)c(O)cc3O)n2-c2ccc(CN3CCN(C)CC3)cc2)cc1 [Compound 24, 4-isopropyl-6-(5-(4-methoxyphenyl)-1-(4-((4-methylpiperazin-1-yl)methyl)phenyl)-1H-imidazol-2-yl)benzene-1,3-diol]		< 200 nM
CC(C)c1cc(-c2nnc(-c3ccccc3O)n2-c2ccc(N3CCN(C)CC3)cc2)c(O)cc1O [Compound 3, 4-(5-(2-hydroxyphenyl)-4-(4-(4-methylpiperazin-1-yl)phenyl)-4H-1,2,4-triazol-3-yl)-6-isopropylbenzene-1,3-diol]	5160 nM	
CC(C)c1cc(-c2nnc(-c3cccc(O)c3)n2-c2ccc(CN3CCOCC3)cc2)c(O)cc1O [Compound 10, 4-(5-(3-hydroxyphenyl)-4-(4-(morpholinomethyl)phenyl)-4H-1,2,4-triazol-3-yl)-6-isopropylbenzene-1,3-diol]		60 nM
CC(C)c1cc(-c2nnc(-c3cccnc3)n2-c2ccc(CN3CCN(C)CC3)cc2)c(O)cc1O [Compound 16, 4-isopropyl-6-(4-(4-((4-methylpiperazin-1-yl)methyl)phenyl)-5-(pyridin-3-yl)-4H-1,2,4-triazol-3-yl)benzene-1,3-diol]		18 nM
CC(C)c1cc(-c2nnc(-c3cccc(O)c3)n2-c2cccnc2)c(O)cc1O [Compound 11, 4-(5-(3-hydroxyphenyl)-4-(pyridin-3-yl)-4H-1,2,4-triazol-3-yl)-6-isopropylbenzene-1,3-diol]		300 nM
CC(C)c1cc(-c2nnc(-c3cccnc3)n2-c2ccccc2)c(O)cc1O [Compound 15, 4-isopropyl-6-(4-phenyl-5-(pyridin-3-yl)-4H-1,2,4-triazol-3-yl)benzene-1,3-diol]		< 200 nM
CC(C)c1cc(-c2nnc(-c3cnccn3)n2-c2ccc(N3CCN(C)CC3)cc2)c(O)cc1O [Compound 6, 4-isopropyl-6-(4-(4-(4-methylpiperazin-1-yl)phenyl)-5-(pyrazin-2-yl)-4H-1,2,4-triazol-3-yl)benzene-1,3-diol]	3400 nM	
CCN1CCN(Cc2ccc(-n3c(-c4cccnc4)nnc3-c3cc(C(C)C)c(O)cc3O)c(Cl)c2)CC1 [Compound 19, 4-(4-(2-chloro-4-((4-ethylpiperazin-1-yl)methyl)phenyl)-5-(pyridin-3-yl)-4H-1,2,4-triazol-3-yl)-6-isopropylbenzene-1,3-diol]		52 nM
CC(C)c1cc(-c2nnc(-c3cccc(O)c3)n2-c2ccc(CN3CCN(C)CC3)cc2)c(O)cc1O [Compound 7, 4-(5-(3-hydroxyphenyl)-4-(4-((4-methylpiperazin-1-yl)methyl)phenyl)-4H-1,2,4-triazol-3-yl)-6-isopropylbenzene-1,3-diol]	123 nM	
CC(C)c1cc(-c2nnc(-c3cccnc3)n2-c2cccnc2)c(O)cc1O [Compound 12, 4-(4,5-di(pyridin-3-yl)-4H-1,2,4-triazol-3-yl)-6-isopropylbenzene-1,3-diol]		1000 nM
CC(C)c1cc(-c2nnc(-c3cccc(O)c3)n2-c2ccc(N3CCOCC3)cc2)c(O)cc1O [Compound 8, 4-(5-(3-hydroxyphenyl)-4-(4-morpholinophenyl)-4H-1,2,4-triazol-3-yl)-6-isopropylbenzene-1,3-diol]	143 nM	
CC(C)c1cc(-c2nnc(-c3cccc(O)c3)n2-c2ccc(N3CCN(C)CC3)cc2)c(O)cc1O [Compound 4, 4-(5-(3-hydroxyphenyl)-4-(4-(4-methylpiperazin-1-yl)phenyl)-4H-1,2,4-triazol-3-yl)-6-isopropylbenzene-1,3-diol]	543 nM	
